Laboratory results from patent US7855228B2, “Antibiotics targeting MreB” (The Board of Trustees of the Leland Stamford Junior …, priority 2005, dated 2010).

Test system: Caulobacter DNA replication
Assay: Analysis of DNA replication (32P-labeled dGTP incorporation, DNA-content FACS)
Format: cell-based, Caulobacter crescentus
Text: We first examined the incorporation of radiolabeled dGTP into DNA, which linearly correlates with the rate of DNA replication. […] To assess the effect of A22 on DNA replication during the cell cycle, the radiolabeled nucleotide incorporation assay was repeated using synchronized cultures at different points in the cell cycle. Untreated cells display a dramatic rise in radioactivity levels characteristic of DNA replication initiation at the swarmer-to-stalked cell transition. This rise in radioactivity levels was also observed in A22-treated cells (FIG. 6A).
Finally, we examined the DNA content of A22-treated cells by FACS.
Analysis of DNA Replication. DNA replication was assessed by incorporation of 32P-labeled dGTP) or chromomycin-stained DNA-content FACS analysis as described previously.

**Q.** Which results are given for `N=C(N)SCc1ccc(Cl)c(Cl)c1` [Compound 1, S-(3,4-dichlorobenzyl)isothiourea]?
**A.** Incorporation of radiolabeled dGTP, asynchronous cultures: does not interfere with bulk DNA synthesis; Incorporation of radiolabeled dGTP, synchronized cultures (replication initiation) (10 μg/ml A22 or 5 mg/ml HU): slightly delayed replication initiation; DNA content by FACS (10 μg/ml, 8 hr): predominantly contained cells with two chromosomes
